Experimental data published in patent US6515022B2, “Use of inhaled retinoids in the treatment of lung diseases” (Sloan-Kettering Institute for Cancer Research, priority 1996, dated 2003).
In brackets after ≈: the same amount, converted by molar mass. Like-named read-outs stand apart in the source and are kept apart here.

Assays:
[1] = physchem; settings: HCFC-123 without alkylamine, organic solvent or mixture
[2] = Attempts at aqueous solutions (MOLECUSOL, ammonium salt); type: physicochemical; settings: solutions containing 45% MOLECUSOL (modified beta cyclodextrin)
From the text: Next, because of a report that the solubility of retinol (vitamin A) in water could be increased by addition of modified beta cyclodextrin (MOLECUSOL®), we next tried to prepare aqueous solutions of all-trans retinoic acid using MOLECUSOL® to enhance the solubility. […] Similarly, efforts to solubilize all-trans retinoic acid in aqueous solution using phosphatidylcholine and phosphatidylethanolamine produced a viscous colloid which was unsuited for aerosol administration.
We next tried to use salts of the retinoids to obtain a water-soluble product for aerosol generation. When all-trans retinoic acid is treated with ammonium hydroxide, a water-soluble ammonium salt is obtained. The pH of solutions of this salt is too high (pH >10), however, for direct administration as an aerosol. Neutralization of the solution after dissolution of the retinoid led to the formation of a precipitate, both in the presence and absence of added beta cyclodextrin.

[3] = Tissue/plasma concentrations after intra-tracheal instillation (HPLC); type: in vivo, Sprague-Dawley rats; settings: Sprague-Dawley, other: intra-tracheal instillation, rat, 100 μg intra-tracheal instillation
Protocol: To evaluate the bioavailability of retinoids delivered by inhalation, 100 μl of an aqueous solution containing 100 μg of all-trans retinoic acid was administered via intra-tracheal instillation to 3 Sprague-Dawley rats, each weighing approximately 200 g. One rat was then sacrificed at three time points: 1, 6 and 24 hours after treatment. At the time of sacrifice, the chest cavity was opened, both lungs and trachea were removed en bloc, and the right and left lungs were separated by dissection. The liver was also removed, along with a sample of blood obtained by cardiac puncture. The blood sample was separated by centrifugation, and plasma plus each of the aforementioned tissues were frozen for later analysis. Subsequently, the tissue was homogenized, and the homogenized tissue and plasma were extracted with ethanol.

[4] = Solubility in chlorofluorocarbons with alkylamine solubilizers
[5] = physchem; settings: organic solvent or mixture, thermodynamic from solid
Protocol: Maximum solubility was determined by weighing the residue remaining after evaporation of the solvent.

[6] = in vivo; settings: rat
Protocol: The biodistribution and pharmacokinetics of an inhaled formulation of all-trans retinoic acid were compared to both intra-tracheal and intravenous administration. Anesthetized (i.p. pentobarbitol 50 mg/kg) male Sprague-Dawley rats weighing 300 to 700 grams were treated by administration of all-trans retinoic acid by inhalation, iv injection or intra-tracheal injection. Inhaled and intra-tracheal injections were given through an endotracheal tube placed under direct vision over a guidewire as described by Weksler et al., J. Appl. Physiol. 76: 1823-1825 (1994). IV doses were given by catheter injection via the right external jugular vein.
For inhalation, all-trans retinoic acid was solublized in hydrofluorocarbon 123 using tetramethylamunonium hydroxide to a concentration of 5 mg/ml, and combined with hydrofluoroalkane 134a as propellant, for a final concentration of 1.5 mg per 1.475 grams of propellant solution. […] An identical inhaler containing propellant mixture without drug was used as a control. […] This procedure was also repeated with an angiocatheter fitted to the apparatus. The catheter was subsequently rinsed with 10 ml of isopropanol, which was also collected. The three solutions were then assayed for all-trans retinoic acid concentrations in order to determine the amount of drug delivered through the apparatus, as well as any residual drug that was bound to the angiocatheter. We defined the area under the concentration times-time curve (AUC) for animals who received intra-tracheal all-trans retinoic acid as 100% effective dose delivery to the lung.
For injection, an aqueous solution of all-trans retinoic acid was prepared in 20% ethanol, 10% Tween 20 and 1 mM NH4OH, for a final concentration of […] all-trans retinoic acid per ml of solution. A mixture of 20% ethanol and 10% Tween 20 served as a control.
Animals were grouped into three experimental groups and two control groups. The control groups received no treatment or a control inhalant containing no all-trans retinoic acid. Animals in the groups receiving iv or intra-tracheal injections each received a single dose containing 250 μg all-trans retinoic acid. Animals in the group treated with the multidose inhaler each received three doses for a total of 147 μg of all-trans retinoic acid.

[7] = Histologic examination of lungs and trachea after single-dose administration; settings: rat
Protocol: Animals were sacrificed at 5 minutes and at 1, 2, 4 and 6 hours, and blood and liver and lung tissue were harvested for analysis by high performance liquid chromatography (HPLC) and histology. In addition, animals receiving the inhalant were sacrificed at 24 hours post-treatment.

[8] = left lung, read-out: Left Lung concentration
[9] = liver, read-out: Liver concentration
[10] = plasma, read-out: Plasma concentration
[11] = right lung, read-out: Right Lung concentration
[12] = trachea, read-out: Trachea concentration
[13] = male, Sprague-Dawley, inhaled or intranasal, 147 ug
[14] = male, Sprague-Dawley, iv, 250 ug

**Q.** What does the source list for `CC1=C(/C=C/C(C)=C/C=C/C(C)=C/C(=O)O)C(C)(C)CCC1` [all-trans retinoic acid]?
**A.** solubility [1]: ~2000 µg/mL (≈ 6.66 mM); Solubility in aqueous solution [2]: enhance the solubility of the all-trans retinoic acid to a useful level; concentration at 1 hour [3, 8]: 928 ng/g; concentration at 6 hours [3, 8]: 56 ng/g; concentration at 24 hours [3, 8]: 22 ng/g; concentration at 1 hour [3, 9]: 233 ng/g; concentration at 6 hours [3, 9]: 24 ng/g; concentration at 24 hours [3, 9]: 23 ng/g; concentration at 1 hour [3, 10]: 123 ng/mL; concentration at 24 hours [3, 10]: 178 ng/mL; concentration at 1 hour [3, 11]: 773 ng/g; concentration at 6 hours [3, 11]: 91 ng/g; concentration at 24 hours [3, 11]: 21 ng/g; concentration at 1 hour [3, 12]: 2860 ng/g; concentration at 6 hours [3, 12]: 96 ng/g; concentration at 24 hours [3, 12]: 30 ng/g; Maximum Solubility ([4]; HCFC-123, alkylamine 1.44 mg/ml): ˜17 mg/ml; Maximum Solubility ([4]; HCFC-123, alkylamine 7.22 mg/ml): ˜44 mg/ml; solubility ([5]; ethyl acetate): 10000 µg/mL (≈ 33.3 mM); solubility ([5]; methylene chloride): 5000 µg/mL (≈ 16.6 mM); Lung AUC, intra-tracheal route relative to aerosolized route ([6]; male, Sprague-Dawley): 100 times; concentration at 1 hour ([6]; male, Sprague-Dawley): 68 ± 44 ng/mL; AUC ([6]; male, Sprague-Dawley, 250 ug): 191 ng·h/mL; Liver AUC ([6]; male, Sprague-Dawley, 250 ug): 2532 ng-hr/gm; Lung AUC ([6]; male, Sprague-Dawley, 250 ug): 26972 ng-hr/gm; half-life ([6]; male, Sprague-Dawley, 250 ug, Liver T½): 22 h; half-life ([6]; male, Sprague-Dawley, 250 ug, Lung T½): 17.7 h; half-life ([6]; male, Sprague-Dawley, 250 ug, Plasma T½): 1.9 h; AUC [6, 13]: 171 ng·h/mL; Liver AUC [6, 13]: 2307 ng-hr/gm; Lung AUC [6, 13]: 262 ng-hr/gm; half-life ([6]; male, Sprague-Dawley, inhaled or intranasal, 147 ug, Lung T½): 5.4 h; half-life ([6]; male, Sprague-Dawley, inhaled or intranasal, 147 ug, Plasma T½): 3 h; Total absorption (percent effective dose: inhaled AUC / intra-tracheal AUC) ([6]; male, Sprague-Dawley, inhaled or intranasal, 250 ug): 1-2%; AUC [6, 14]: 1380 ng·h/mL; Liver AUC [6, 14]: 4724 ng-hr/gm; Liver T½ [6, 14]: 0.8 h; Lung AUC [6, 14]: 11910 ng-hr/gm; half-life ([6]; male, Sprague-Dawley, iv, 250 ug, Liver T½): 1 h; half-life ([6]; male, Sprague-Dawley, iv, 250 ug, Lung T½): 1.9 h; Lung AUC, intra-tracheal route relative to iv route [6]: twice; Histologic examination of lungs and traches [7]: no focal irritation attributable to the drug
